“Also recorded” adds a separate entry of the source.
Experiments:
C57 mice = assay: Intraperitoneal injection of phenylalanine and isoleucine, blood Th1 cells by flow cytometry; assay type: in vivo, mouse; conditions: WT (C57) mice, intraperitoneal injection 50 mg/kg for 4 days
Method: (g) Blood Th1 cell changes after 4-day intraperitoneal (i.p.) injection of phenylalanine and isoleucine (n=6). ***P<0.001 by one-way ANOVA (F (2, 21)=101.8).
Tg mice and co-housed WT mice (corresponding WT mice generated by mating Tg mice and C57 mice) were housed in the same cage after birth. WT mice (C57) were housed in separate cages to avoid cross-transfer of microbiota. All mice were kept in a 23° C. room with a 12-hour (h) light-dark cycle. Mice were randomly assigned to different groups before treatment. For time course analysis of Tg mice, male and female Tg mice were sacrificed at 2, 3, 5, 7 and 9 months of age. The mouse brain was collected and stained for immune cell analysis and cytokine analysis. Before the mice were sacrificed, feces were collected for gut microbiota analysis. […] All mouse movements that occur in PhenoTyper (HomeCage) are recorded by a computerized tracking system, which calculates the time and number of entrances required to reach 80% of the performance standard (Noldus, Ethovision). […]
Mice were anesthetized, blood samples were collected into EDTA-containing tubes, and red blood cells were removed using 1×red blood lysis buffer. […] All samples were counted and adjusted to a density of 2-3×10^6/100 μL, labeled with a Live/Dead kit for 30 min, and then centrifuged at 500×g for 3 min at 4° C. […]

naive CD4^+ T cells = assay: In vitro differentiation and proliferation induced by phenylalanine and isoleucine; assay type: cell-based, mouse; conditions: 3 days; for Th1 cell proliferation: amino acid (1 mM) added to CellTrace-stained naive CD4^+ T cell culture; for Th0 cell differentiation into Th1 cells: amino acid (1 mM) added to naive CD4^+ T cell culture
Method: (e) The effects of OM1 on the differentiation of naive CD4^+ T cells (Th0 cells) to Th1 cells induced by phenylalanine and isoleucine. Naive CD4^+ T cells were cultured for 3 days with/without OM1 in the presence of phenylalanine (1 mM) or isoleucine (1 mM). The frequency of Th1 (CD4^+IFN-γ^+) cells was tested by flow cytometry. The data are presented as mean±standard error of the mean (mean±sem); n=3 replicates per group. Left, *P<0.05, **P<0.01 by one-way ANOVA (F (2, 6)=15.64). Right, *P<0.05, **P<0.01 by one-way ANOVA (F (2, 6)=10.35).
(f) The effects of OM1 on the proliferation of Th1 cells induced by phenylalanine and isoleucine. The naive CD4^+ T cells were stained with CellTrace and cultured for 3 days with/without OM1 in the presence of phenylalanine (1 mM) and isoleucine (1 mM). The density of CellTrace fluorescence in Th1 (CD4^+IFN-γ^+) cells was tested by flow cytometry (see Methods). The data are presented as mean±standard error of the mean (mean±sem), n=3. *P<0.05, ***P<0.001 by one-way ANOVA (F (4, 9)=28.34).
Naive CD4^+ T cells were separated from the splenocytes of 8-month-old C57BL/6 female mice using the Naive CD4^+ T cell Isolation Kit (Stem Cell, #19765), and the cells were stained with CellTrace (Thermo Fisher, #C34557). A total of 1×10^5 cells/well in 0.2 mL of RPMI-1640 medium were plated in 96-well plates, and the culture medium was supplemented with cytokines or blocking antibodies. Th0: 10 ng/mL mIL-2; Th1:10 ng/mL mIL-2, 5000 ng/mL 11B11. Phenylalanine (final concentration, 2 mmol/L), isoleucine (final concentration, 2 mmol/L) and OM1 (final concentration, 100 μg/mL) were added into the indicated wells, respectively. After incubation at 37° C. in 5% CO2 for 5 days, cells were acquired on a BD Fortessa cytometer, and data were analyzed using FlowJo software.

[1] = system: 5XFAD transgenic (Tg) mice; assay: Flow cytometry of brain homogenate immune cells (Th1, M1 microglia); assay type: in vivo, mouse; conditions: 6-month-old 5XFAD mice, 50 mg/kg intraperitoneal injection every day for one month, versus vehicle
Method: Tg mice and co-housed WT mice (corresponding WT mice generated by mating Tg mice and C57 mice) were housed in the same cage after birth. WT mice (C57) were housed in separate cages to avoid cross-transfer of microbiota. All mice were kept in a 23° C. room with a 12-hour (h) light-dark cycle. Mice were randomly assigned to different groups before treatment. For time course analysis of Tg mice, male and female Tg mice were sacrificed at 2, 3, 5, 7 and 9 months of age. The mouse brain was collected and stained for immune cell analysis and cytokine analysis. […] The brains and feces of the mice were then used for different analyses.
Mice were anesthetized, blood samples were collected into EDTA-containing tubes, and red blood cells were removed using 1×red blood lysis buffer. Before tissue collection, the brains were perfused with ice-cold PBS to avoid sampling the circulating blood immune cells, and the brains were removed, chopped into pieces and dissected according to the introduction of the Adult Brain Dissociation Kit (Miltenyi, Cat No. 130-107-677) using the gentleMACS dissociator (Miltenyi Biotec). The brain homogenate was filtered through a 70-μm cell strainer and centrifuged at 300×g for 5 min at 4° C. […] All samples were counted and adjusted to a density of 2-3×10^6/100 μL, labeled with a Live/Dead kit for 30 min, and then centrifuged at 500×g for 3 min at 4° C. […]

SLC7A5 = target: T1, SLC7A5 (Mus musculus, UniProt Q9Z127); assay: Uptake of ^13C-labeled phenylalanine by CD4^+ T cells; assay type: cell-based; conditions: ^13C-phenylalanine 5 mmol/L, 0.5 h
T1 construct: endogenous in cells; host or cells: Primary CD4+ T cells (naive/Th0 and IL-12-induced Th1) from splenocytes of C57BL/6 mice
Method: (k) The uptake of phenylalanine by the naïve CD4 T cells. The naïve CD4 T cells were cultured with/without ^13C-labeled phenylalanine for 0.5 h. Mass Spectrometry of phenylalanine-related compounds were tested. ^13C-Phenylalanine is administered at a concentration of 5 mmol/L, and is taken up by an L-type amino acid transporter.
Naive CD4^+ T cells were separated from the splenocytes of 8-month-old C57BL/6 female mice using the Naive CD4^+ T cell Isolation Kit (Stem Cell, Cat No. 19765) and were induced to Th1 differentiation by 20 ng/mL IL-12. After 3 days, a total of 5 ×10^5 cells/well Th1 cells and Th0 cells in 0.5 mL of RPMI-1640 medium were plated into 48-well plates. ^13C-labeled phenylalanine and 5 mM amino transporter inhibitor BCH were added into indicated wells. After 0.5 h, cells were collected and washed twice with ice-cold D-PBS. 50 μL deionized water was added and cells were lysed through freezing and thawing twice at −80° C. The cell lysate was centrifuged at 12000×g for 10 min and ^13 C-labeled phenylalanine in the supernatant was analyzed by Mass spectrometry.

T1 sequence (Q9Z127 whole entry): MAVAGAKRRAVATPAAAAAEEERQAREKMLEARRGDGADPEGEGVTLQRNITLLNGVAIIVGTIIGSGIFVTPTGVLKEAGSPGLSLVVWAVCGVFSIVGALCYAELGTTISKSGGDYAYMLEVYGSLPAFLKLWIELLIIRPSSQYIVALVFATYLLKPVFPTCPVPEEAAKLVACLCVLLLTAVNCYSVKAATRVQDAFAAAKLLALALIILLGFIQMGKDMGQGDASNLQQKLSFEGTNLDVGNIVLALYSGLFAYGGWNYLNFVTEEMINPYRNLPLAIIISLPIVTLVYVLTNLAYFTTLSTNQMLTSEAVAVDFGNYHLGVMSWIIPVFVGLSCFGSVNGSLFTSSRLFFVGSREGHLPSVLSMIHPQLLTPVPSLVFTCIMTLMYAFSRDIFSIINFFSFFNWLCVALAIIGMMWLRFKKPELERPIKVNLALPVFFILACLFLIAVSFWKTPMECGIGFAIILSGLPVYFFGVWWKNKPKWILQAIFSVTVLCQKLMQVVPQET
T1 sequence (P10852 whole entry partner): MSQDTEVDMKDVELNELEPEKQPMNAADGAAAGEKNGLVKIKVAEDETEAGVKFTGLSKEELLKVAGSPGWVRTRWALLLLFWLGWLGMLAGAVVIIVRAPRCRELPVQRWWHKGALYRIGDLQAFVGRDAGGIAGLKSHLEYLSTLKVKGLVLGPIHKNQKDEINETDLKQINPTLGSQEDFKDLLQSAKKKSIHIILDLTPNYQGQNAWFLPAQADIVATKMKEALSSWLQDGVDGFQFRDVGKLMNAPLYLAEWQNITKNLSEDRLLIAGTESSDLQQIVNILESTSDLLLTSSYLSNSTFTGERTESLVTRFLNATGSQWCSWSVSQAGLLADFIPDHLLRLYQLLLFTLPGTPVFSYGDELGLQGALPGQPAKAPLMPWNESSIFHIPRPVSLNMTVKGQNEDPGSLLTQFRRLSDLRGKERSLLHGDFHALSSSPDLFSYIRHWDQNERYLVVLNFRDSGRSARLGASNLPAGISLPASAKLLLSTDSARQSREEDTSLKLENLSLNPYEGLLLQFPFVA

| SMILES | Th1 cell count in the blood (C57 mice) | Th1 cell proliferation (naive CD4^+ T cells) | Th0 cell differentiation into Th1 cells (naive CD4^+ T cells) | proportion of pro-inflammatory Th1 cells in the brain [1] | uptake of ^13C-labeled phenylalanine by CD4^+ T cells (SLC7A5) |
| --- | --- | --- | --- | --- | --- |
| CC[C@H](C)[C@H](N)C(=O)O [isoleucine] | increased significantly | increased | increased | – | – |
| N[C@@H](Cc1ccccc1)C(=O)O [phenylalanine] | increased significantly | increased | increased | – | – |
| Nc1cc(COc2c(Cl)cc(C[C@H](N)C(=O)O)cc2Cl)c2oc(-c3ccccc3)nc2c1 [JPH203] | – | – | – | effectively inhibits the proportion of Th1 cells in the brain; also recorded: significantly downregulated the proportion of pro-inflammatory Th1 cells in the mouse brain | blocked |

Reference: US20220280589A1, “METHOD FOR TREATING ALZHEIMER'S DISEASE BY REGULATING AMINO ACID LEVEL” (SHANGHAI GREEN VALLEY PHARMACEUTICAL CO., LTD., priority 2019, published 2022)
